Reference: ChEMBL document CHEMBL5512671, “Structure-Based Optimization of Novel Sterol 24-C-Methyltransferase Inhibitors for the Treatment of Candida albicans Infections” (J Med Chem, 2024)
Active and inactive are the calls of the source. The rule behind the calls is not given here.

Tests used:
Candida albicans [1] = test: Synergistic antifungal activity against Candida albicans SC5314 assessed as inhibition of fungal growth incubated for 24 hrs in presence of tridemorph by broth microdilution checkerboard assay; type: functional
Candida parapsilosis [2] = test: Antifungal activity against Candida parapsilosis CP1 assessed as inhibition of hyphae formation at 1 ug/ml measured after 6 hrs by microscopy based analysis; type: functional, organism-based; conditions: dose 1.0 µg/ml
Nakaseomyces glabratus [3] = test: Antifungal activity against Candida glabrata CG2 assessed as inhibition of hyphae formation at 1 ug/ml measured after 6 hrs by microscopy based analysis; type: functional, organism-based; conditions: dose 1.0 µg/ml
Candida albicans [4] = test: Antifungal activity against Candida albicans SC5314 infected in Balb/C mouse candidiasis model assessed as appearance of inflammatory infiltrates at 0.5 % administered topically and measured after 72 hrs in presence of tridemorph by H and E staining based analysis; type: functional, organism-based
Candida albicans [5] = test: Antifungal activity against Candida albicans SC5314 infected in Balb/C mouse candidiasis model assessed as filamentation defect at 0.5 % administered topically and measured after 72 hrs in presence of terbinafine by PAS staining based analysis; type: functional, organism-based
[6] = Cytotoxicity against human BEAS-2B cells incubated for 48 hrs by CCK-8 method; type: toxicity, cell-based
Candida albicans [7] = test: Antifungal activity against Candida albicans CAI4/pBA1-ERG6 assessed as inhibition of hyphae growth incubated for 24 hrs by CLSI protocol based broth microdilution method; type: functional, organism-based
Candida albicans [8] = test: Synergistic antifungal activity against Candida albicans SC5314 assessed as fractional inhibitory concentration index incubated for 24 hrs in presence of tridemorph by broth microdilution checkerboard assay; type: functional
Candida albicans [9] = test: Antifungal activity against Candida albicans SC5314 infected in Balb/C mouse candidiasis model assessed as filamentation defect at 0.5 % administered topically and measured after 72 hrs by PAS staining based analysis; type: functional, organism-based
Candida albicans [10] = test: Antifungal activity against Candida albicans SC5314 assessed as inhibition of fungal growth incubated for 24 hrs by CLSI protocol based broth microdilution method; type: functional
[11] = target: T1, Sterol 24-C-methyltransferase (Candida albicans (strain SC5314 / ATCC MYA-2876) (Yeast)) (UniProt O74198); test: Thermal stabilization of recombinant Candida albicans SC5314 Erg6 transfected in Escherichia coli BL21 (DE3) at 0.5 ug/ml incubated for 30 mins at 43 to 57 degreeC by Western blot analysis; conditions: dose 0.5 µg/ml
T1 sequence (whole entry): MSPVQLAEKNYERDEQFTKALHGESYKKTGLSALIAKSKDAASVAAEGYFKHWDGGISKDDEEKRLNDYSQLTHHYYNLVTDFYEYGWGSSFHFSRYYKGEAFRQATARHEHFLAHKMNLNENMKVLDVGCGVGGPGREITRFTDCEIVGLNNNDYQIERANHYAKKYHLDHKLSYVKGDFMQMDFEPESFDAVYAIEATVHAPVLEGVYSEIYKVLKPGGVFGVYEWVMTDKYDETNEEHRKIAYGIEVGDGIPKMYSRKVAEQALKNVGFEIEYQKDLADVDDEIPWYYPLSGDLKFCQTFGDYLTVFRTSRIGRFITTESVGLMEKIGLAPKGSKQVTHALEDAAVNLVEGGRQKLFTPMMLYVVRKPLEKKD

[12] = Hemolytic activity in mouse RBC assessed as hemolysis at 2 to 32 ug/ml incubated for 60 mins by absorbance based analysis relative to control; type: toxicity, cell-based, Erythrocyte; conditions: mouse red blood cells, at 2 to 32 µg/mL, dose 2-32 µg/ml, read-out: Activity
[Candida] auris [13] = Antifungal activity against Candida auris CBS12774 assessed as effect on cell size at 1 ug/ml measured after 6 hrs by microscopy based analysis; type: functional, organism-based; conditions: Candidozyma auris, dose 1.0 µg/ml
[Candida] auris [14] = Antifungal activity against Candida auris CBS12774 assessed as effect on cell structure at 1 ug/ml measured after 6 hrs by microscopy based analysis; type: functional, organism-based; conditions: Candidozyma auris, dose 1.0 µg/ml
Candida albicans [15] = test: Antifungal activity against Candida albicans SC5314 infected in Balb/C mouse candidiasis model assessed as decrease in skin fungal burden by measuring fold change at 0.5 % administered topically and measured after 72 hrs in presence of tridemorph; type: functional
Candida albicans [16] = test: Downregulation of RAS1 gene level in Candida albicans SC5314 at 1 ug/ml incubated for 6 hrs by qPCR analysis; type: functional; conditions: dose 1.0 µg/ml
Candida albicans [17] = test: Antifungal activity against Candida albicans SC5314 assessed as inhibition of hyphae growth measured after 5 days cultured under solid spider agar medium and 10mM GlcNAc by microscopy based analysis; type: functional, organism-based; conditions: dose 0.25-1 µg/ml, time 5.0 day
Candida albicans [18] = test: Synergistic antifungal activity against Candida albicans SC5314 assessed as fractional inhibitory concentration index incubated for 24 hrs in presence of terbinafine by broth microdilution checkerboard assay; type: functional
[19] = target: T1, Sterol 24-C-methyltransferase (Candida albicans (strain SC5314 / ATCC MYA-2876) (Yeast)); test: Inhibition of Candida albicans SC5314 Erg6 assessed as fold increase in zymosterol content at 1 ug/ml incubated for 12 hrs by GC-MS analysis; conditions: dose 1.0 µg/ml
Candida albicans [20] = test: Antifungal activity against Candida albicans SC5314 assessed as inhibition of hyphae growth measured after 6 hrs cultured under RPMI1640 medium by microscopy based analysis; type: functional, organism-based; conditions: dose 0.25-1 µg/ml
Candida albicans [21] = test: Antifungal activity against Candida albicans SC5314 infected in Balb/C mouse candidiasis model assessed as decrease in skin fungal burden by measuring fold change at 0.5% administered topically and measured after 72 hrs; type: functional
Candida albicans [22] = test: Fungistatic activity against Candida albicans SC5314 at 1 ug/ml incubated for 3 hrs in presence of tridemorph by SYTOX staining based analysis; type: functional, organism-based; conditions: dose 1.0 µg/ml
Candida albicans [23] = test: Antifungal activity against Candida albicans SC5314 assessed as inhibition of hyphae growth measured after 5 days cultured under solid spider agar medium by microscopy based analysis; type: functional, organism-based; conditions: dose 0.25-1 µg/ml, time 5.0 day
Candida albicans [24] = test: Antifungal activity against Candida albicans SC5314 assessed as inhibition of morphological transition at 0.5 ug/ml measured after 5 days cultured under solid spider agar medium by microscopy based analysis relative to control; type: functional; set-up: scale not given: the % may be the effect or the level left; conditions: dose 0.5 µg/ml; time 5 day
Candida albicans [25] = test: Downregulation of UME6 expression in Candida albicans SC5314 at 1 ug/ml incubated for 6 hrs by qPCR analysis; type: functional; conditions: dose 1.0 µg/ml
[26] = Cytotoxicity against human HUVEC cells incubated for 48 hrs by CCK-8 method; type: toxicity, cell-based
Candida albicans [27] = test: Downregulation of ECE1 expression in Candida albicans SC5314 at 1 ug/ml incubated for 6 hrs by qPCR analysis; type: functional; conditions: dose 1.0 µg/ml
Candida albicans [28] = test: Antibiofilm activity against Candida albicans CA14-TDH3-GFP at 0.5 to 2 ug/ml incubated for 24 hrs by XTT reduction assay; type: functional, organism-based; conditions: dose 0.5-2 µg/ml
Candida albicans [29] = test: Antifungal activity against Candida albicans SC5314 infected in Balb/C mouse candidiasis model assessed as appearance of inflammatory infiltrates at 0.5 % administered topically and measured after 72 hrs by H and E staining based analysis; type: functional, organism-based
Nakaseomyces glabratus [30] = test: Antifungal activity against Candida glabrata CG2 assessed as effect on cell size at 1 ug/ml measured after 6 hrs by microscopy based analysis; type: functional, organism-based; conditions: dose 1.0 µg/ml
Candida parapsilosis [31] = test: Antifungal activity against Candida parapsilosis CP1 assessed as effect on cell size at 1 ug/ml measured after 6 hrs by microscopy based analysis; type: functional, organism-based; conditions: dose 1.0 µg/ml
Candida parapsilosis [32] = test: Antifungal activity against Candida parapsilosis CP1 assessed as effect on structure at 1 ug/ml measured after 6 hrs by microscopy based analysis; type: functional, organism-based; conditions: dose 1.0 µg/ml

## Cc1c(-n2c(-c3ccc4ccccc4c3)cs/c2=N\c2ccccc2)c(=O)n(-c2ccccc2)n1C
Candida albicans [1]
  MIC80: 1 µg/mL
Candida parapsilosis [2]
  Activity: Active
Nakaseomyces glabratus [3]
  Activity: Active
Candida albicans [4]
  Activity: inactive
Candida albicans [5]
  Activity: Active
[6]
  EC50 at 48 h: > 50 µg/mL
Candida albicans [7]
  Activity: Active
Candida albicans [8]
  fractional inhibitory concentration index (FICI): <0.1
Candida albicans [9]
  Activity: Active
Candida albicans [10]
  MIC80: > 128 µg/mL
[11]
  Activity: Active
[12]
  hemolysis at 1 h: < 1%
[Candida] auris [13]
  Activity: inactive
[Candida] auris [14]
  Activity: inactive
Candida albicans [15]
  fold change (FC): 60.26
Candida albicans [16]
  Activity: Active
Candida albicans [17]
  Activity: Dose-Dependent Effect
Candida albicans [18]
  fractional inhibitory concentration index (FICI): <0.1
[19]
  fold change (FC): 11
Candida albicans [20]
  Activity: Dose-Dependent Effect
Candida albicans [21]
  fold change (FC): 2.86
Candida albicans [22]
  Activity: Active
Candida albicans [23]
  Activity: Dose-Dependent Effect
Candida albicans [24]
  Activity: 100%
Candida albicans [25]
  Activity: Active
[26]
  EC50 at 48 h: > 50 µg/mL
Candida albicans [27]
  Activity: Active
Candida albicans [28]
  Activity: Active
Candida albicans [29]
  Activity: Active
Nakaseomyces glabratus [30]
  Activity: inactive
Candida parapsilosis [31]
  Activity: inactive
Candida parapsilosis [32]
  Activity: inactive
